# Experimental data as given in US10010614B2, “Derivatives of GLP-1 like peptides, and uses thereof” (Novo Nordisk A/S, priority 2013, dated 2018).
# Numbered stars: 1 amine (or outer) side, 2 acyl side, 3 side chain; on linkers, the order of the positions; unused ones are H or OH. Square brackets hold non-standard residues; d marks the D form. Side chains are listed from the residue outwards. Peptide text beside a SMILES is read from it. * marks the point of attachment. X1 = O=C(O)CCCCCCCCCCCCCCCCCCC(=O)NCC1CCC(C(=O)*)CC1; C20 diacid = O=C(O)CCCCCCCCCCCCCCCCCCC(=O)*; γGlu = O=C(O)[C@H](CCC(=O)[*:2])N[*:1]; εLys = N[C@@H](CCCCN[*:1])C(=O)[*:2]; Trx = NC[C@H]1CC[C@H](C(=O)O)CC1; AEEA = NCCOCCOCC(=O)O; Aib = CC(C)(N)C(=O)O
# Legend:
# [1] = Pharmacokinetic study in minipigs (i.v.); assay type: in vivo; conditions: male, Göttingen, minipig, plasma, iv; read-out: Terminal half-live (converted)
# Description: The purpose of this study is to determine the protraction in vivo of the GLP-1 derivatives after i.v. administration to minipigs, i.e. the prolongation of their time in the body and thereby their time of action. This is done in a pharmacokinetic (PK) study, where the terminal half-life of the derivative in question is determined. By terminal half-life is meant the time it takes to halve a certain plasma concentration in the terminal elimination phase.
# The derivatives of Examples 1-5 were dosed with 2 nmol/kg, the derivative of Example 6 was dosed with 5 nmol/kg, and the derivatives of Examples 7-9 were dosed with 15 nmol/kg.
# Male Göttingen minipigs were obtained from Ellegaard Göttingen Minipigs (Dalmose, Denmark) approximately 7-14 months of age and weighing approximately 16-35 kg were used in the studies. The minipigs were housed either individually (pigs with permanent catheters) or in a group and fed restrictedly once or twice daily with SDS minipig diet (Special Diets Services, Essex, UK).
# After at least 2 weeks of acclimatisation two permanent central venous catheters were implanted in vena cava caudalis or cranialis in each animal. The animals were allowed 1 week recovery after the surgery, and were then used for repeated pharmacokinetic studies with a suitable wash-out period between successive GLP-1 derivative dosings.
# The GLP-1 derivatives were dissolved in 50 mM sodium phosphate, 70-145 mM sodium chloride, 0.05% tween 80, pH 7.4 to a concentration of usually from 20-60 nmol/ml.
# Intravenous injections (the volume corresponding to for example 0.050-0.125 ml/kg) of the compounds were given through one catheter or through the venflon, and blood was sampled at predefined time points for up till 25 days post dosing (preferably through the other catheter or by venipuncture). Blood samples (for example 0.8 ml) were collected in EDTA buffer (8 mM) and then centrifuged at 4° C. and 1942G for 10 minutes.
# Plasma was pipetted into Micronic tubes on dry ice, and kept at −20° C. until analysed for plasma concentration of the respective GLP-1 compound using LOCI. Individual plasma concentration-time profiles were analyzed by a non-compartmental pharmacokinetic method in Phoenix v. 6.2 (Pharsight Inc., Mountain View, Calif., USA), or other relevant software for PK analysis, and the resulting terminal half-lives (harmonic mean) determined.
# [2] = biological target: T1, human GLP-1 receptor (Homo sapiens, UniProt P43220); test: GLP-1 receptor binding, competitive binding assay (125I-GLP-1, SPA) on isolated membranes;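 further: test compounds added at a range of concentrations to membranes from cells expressing the human GLP-1 receptor, scored by displacement of labelled ligand, read with WGA SPA beads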
# T1 construct: expressed in transfected cells; host or cells: membranes prepared from BHK cells (parent line BHKTS13), clone FCW467-12A
# T1 sequence (P43220 24-463): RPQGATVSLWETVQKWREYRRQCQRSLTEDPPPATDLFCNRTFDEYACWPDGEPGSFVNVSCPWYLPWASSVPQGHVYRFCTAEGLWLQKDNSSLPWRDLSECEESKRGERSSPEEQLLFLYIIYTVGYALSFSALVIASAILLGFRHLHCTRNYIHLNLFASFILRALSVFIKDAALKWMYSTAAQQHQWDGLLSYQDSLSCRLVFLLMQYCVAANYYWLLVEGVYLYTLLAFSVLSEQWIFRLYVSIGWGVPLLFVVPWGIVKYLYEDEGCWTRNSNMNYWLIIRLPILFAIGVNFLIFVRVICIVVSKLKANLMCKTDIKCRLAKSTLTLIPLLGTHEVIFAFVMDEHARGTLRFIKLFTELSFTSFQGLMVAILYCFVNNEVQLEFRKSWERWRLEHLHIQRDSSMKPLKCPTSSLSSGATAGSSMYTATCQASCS
# Description: The purpose of this example is to test the receptor binding of the GLP-1 derivatives in vitro. The receptor binding is a measure of affinity of a derivative for the human GLP-1 receptor.
# In this type of assay a labelled ligand (in this case ^125I-GLP-1) is bound to the receptor. Each derivative is added in a series of concentrations to isolated membranes containing the human GLP-1 receptor and displacement of the labelled ligand is monitored. The receptor binding is reported as the concentration at which half of the labelled ligand is displaced from the receptor, the IC50 value.
# The following chemicals were used in the assay: Human serum albumin (HSA) (Sigma A1653), DMEM w/o phenol red (Gibco 11880-028), Pen/strep (Invitrogen 15140-122), G418 (Invitrogen 10131-027), 1 M Hepes (Gibco 15630), EDTA (Invitrogen 15575-038), PBS (Invitrogen 14190-094), fetal calf serum (Invitrogen 16140-071), EGTA, MgCl2 (Merck 1.05832.1000), Tween 20 (Amresco 0850C335), SPA particles (wheat germ agglutinin (WGA) SPA beads, Perkin Elmer RPNQ0001), [^125I]-GLP-1]-(7-36)NH2 (produced in-house), OptiPlate™-96 (Packard 6005290).
# Buffer 1 consisted of 20 mM Na-HEPES plus 10 mM EDTA and pH was adjusted to 7.4. Buffer 2 consisted of 20 mM Na-HEPES plus 0.1 mM EDTA and pH was adjusted to 7.4. Assay buffer consisted of 50 mM HEPES supplemented with 5 mM EGTA, 5 mM MgCl2, 0.005% Tween 20 and pH was adjusted to 7.4. An 8% albumin stock consisted of HSA dissolved at 8% (w/v) in assay buffer. An 0.02% albumin stock consisted of HSA dissolved at 0.02% (w/v) in assay buffer.
# The cells express the human GLP-1 receptor.
# The cells were grown at 5% CO2 in DMEM, 10% fetal calf serum, 1% Pen/Strep (Penicillin/Streptomycin) and 1.0 mg/ml of the selection marker G418.
# To make a membrane preparation the cells were grown to approximately 80% confluence. The cells were washed twice in phosphate-buffered saline and harvested. The cells were pelleted using a brief centrifugation and the cell pellet was kept on ice. The cell pellet was homogenised with ULTRA-THURRAX™ dispersing instrument for 20-30 seconds in a suitable amount of buffer 1 (e.g., 10 ml). The homogenate was centrifuged for 15 minutes. The pellet was re-suspended (homogenised) in 10 ml buffer 2 and centrifuged. This step was repeated once more. The resulting pellet was re-suspended in buffer 2 and the protein concentration was determined. The membranes were aliquoted and stored at minus 80° C.
# For the receptor binding assay in the presence of low HSA (0.005%) 50 μl of the assay buffer was added to each well of an assay plate.
# For the receptor binding assay in the presence of high HSA (2%) 50 μl of the 8% albumin stock was added to each well of an assay plate.
# Cell membrane aliquots were thawed and diluted to their working concentration. Fifty μl were added to each well in the assay plate.
# WGA SPA beads were suspended in assay buffer at 20 mg/ml. The suspension was diluted to 10 mg/ml in assay buffer just prior to addition to the assay plate. Fifty μl were added to each well in the assay plate.
# The incubation was started by adding 25 μl of 480 pM solution of [^125I]-GLP-1]-(7-36)NH2 to each well of the assay plate. A 25 μl aliquot was reserved for measuring total counts/well.
# The assay plate was incubated for 2 h at 30° C.
# The assay plate was centrifuged for 10 min.
# The assay plate was read in a Packard TopCount NXT instrument.
# The data from the TopCount instrument were transferred to GraphPad Prism software. The software averaged the values for the replicates and performed a non-linear regression. IC50 values were calculated by the software and reported in nM.
# [3] = biological target: T1, human GLP-1 receptor; test: In vitro potency, CRE luciferase reporter gene assay in BHK cells expressing the human GLP-1 receptor; assay type: cell-based; conditions: whole cell reporter gene assay, 3 h incubation, no HSA, averages of at least two replicates
# Summary of the method: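 Stably transfected BHK cells (5×10^3/well) expressing human GLP-1R with a CRE-luciferase reporter; compounds diluted in buffer with 2% ovalbumin and 0.2% Pluronic F-68, final 1×10^−7 to 1×10^−14 M. Incubated 3 h at 37 °C, 5% CO2, then luminescence read; potency from non-linear log(agonist)–response fit, mean of ≥2 replicates.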
# [4] = High HSA IC50 (nM), high serum albumin (2.0% HSA final assay concentration)
# [5] = Low HSA IC50 (nM), low serum albumin (max. 0.001% final assay concentration)
Compound,half-life [1] [days],"IC50 [2, 4] [nM]","IC50 [2, 5] [nM]",EC50 [3] [nM]
CC[C@H](C)[C@H](NC(=O)[C@H](Cc1ccccc1)NC(=O)[C@H](CCC(=O)O)NC(=O)[C@H](CCCNC(=N)N)NC(=O)[C@H](C)NC(=O)[C@H](C)NC(=O)[C@H](CCC(N)=O)NC(=O)[C@H](CCC(=O)O)NC(=O)[C@H](CCC(=O)O)NC(=O)[C@H](CC(C)C)NC(=O)[C@H](Cc1ccc(O)cc1)NC(=O)[C@H](CO)NC(=O)[C@H](CO)NC(=O)[C@@H](NC(=O)[C@H](CC(=O)O)NC(=O)[C@H](CO)NC(=O)[C@@H](NC(=O)[C@H](Cc1ccccc1)NC(=O)[C@@H](NC(=O)CNC(=O)[C@H](CCC(=O)O)NC(=O)C(C)(C)NC(=O)[C@@H](N)Cc1c[nH]cn1)[C@@H](C)O)[C@@H](C)O)C(C)C)C(=O)N[C@@H](C)C(=O)N[C@@H](CCCCNC(=O)COCCOCCNC(=O)COCCOCCNC(=O)CC[C@H](NC(=O)[C@H]1CC[C@H](CNC(=O)CCCCCCCCCCCCCCCCCCC(=O)O)CC1)C(=O)O)C(=O)N[C@@H](CC(C)C)C(=O)N[C@H](C(=O)N[C@@H](CCCNC(=N)N)C(=O)NCC(=O)N[C@@H](CCCNC(=N)N)C(=O)NCC(=O)NCC(=O)NCC(=O)NCC(=O)N[C@@H](CO)C(=O)N[C@@H](CCCCNC(=O)COCCOCCNC(=O)COCCOCCNC(=O)CC[C@H](NC(=O)[C@H]1CC[C@H](CNC(=O)CCCCCCCCCCCCCCCCCCC(=O)O)CC1)C(=O)O)C(=O)O)C(C)C [Example 2] (H-H[Aib]EGTFTSDVSSYLEEQAAREFIAK([AEEA-AEEA-γGlu-Trx-C20 diacid])LVRGRGGGGSK([AEEA-AEEA-γGlu-Trx-C20 diacid])-OH),4.58,≥ 1000,1.4,0.036
CC[C@H](C)[C@H](NC(=O)[C@H](Cc1ccccc1)NC(=O)[C@H](CCC(=O)O)NC(=O)[C@H](CCCNC(=N)N)NC(=O)[C@H](C)NC(=O)[C@H](C)NC(=O)[C@H](CCC(N)=O)NC(=O)[C@H](CCC(=O)O)NC(=O)[C@H](CCC(=O)O)NC(=O)[C@H](CC(C)C)NC(=O)[C@H](Cc1ccc(O)cc1)NC(=O)[C@H](CO)NC(=O)[C@H](CO)NC(=O)[C@@H](NC(=O)[C@H](CC(=O)O)NC(=O)[C@H](CO)NC(=O)[C@@H](NC(=O)[C@H](Cc1ccccc1)NC(=O)[C@@H](NC(=O)CNC(=O)[C@H](CCC(=O)O)NC(=O)C(C)(C)NC(=O)[C@@H](N)Cc1c[nH]cn1)[C@@H](C)O)[C@@H](C)O)C(C)C)C(=O)N[C@@H](C)C(=O)N[C@@H](Cc1c[nH]c2ccccc12)C(=O)N[C@@H](CC(C)C)C(=O)N[C@H](C(=O)N[C@@H](CCCNC(=N)N)C(=O)NCC(=O)N[C@@H](CCCNC(=N)N)C(=O)NCC(=O)N[C@@H](CCCCNC(=O)COCCOCCNC(=O)COCCOCCNC(=O)CC[C@H](NC(=O)[C@H]1CC[C@H](CNC(=O)CCCCCCCCCCCCCCCCCCC(=O)O)CC1)C(=O)O)C(=O)NCC(=O)NCC(=O)N[C@@H](CO)C(=O)N[C@@H](CCCCNC(=O)COCCOCCNC(=O)COCCOCCNC(=O)CC[C@H](NC(=O)[C@H]1CC[C@H](CNC(=O)CCCCCCCCCCCCCCCCCCC(=O)O)CC1)C(=O)O)C(=O)O)C(C)C [Example 3] (H-H[Aib]EGTFTSDVSSYLEEQAAREFIAWLVRGRGK([AEEA-AEEA-γGlu-Trx-C20 diacid])GGSK([AEEA-AEEA-γGlu-Trx-C20 diacid])-OH),6.12,185,1.2,0.043
CC[C@H](C)[C@H](NC(=O)[C@H](Cc1ccccc1)NC(=O)[C@H](CCC(=O)O)NC(=O)[C@H](CCCNC(=N)N)NC(=O)[C@H](C)NC(=O)[C@H](C)NC(=O)[C@H](CCCCNC(=O)COCCOCCNC(=O)COCCOCCNC(=O)CC[C@H](NC(=O)C1CCC(CNC(=O)CCCCCCCCCCCCCCCCCCC(=O)O)CC1)C(=O)O)NC(=O)[C@H](CCC(=O)O)NC(=O)[C@H](CCC(=O)O)NC(=O)[C@H](CC(C)C)NC(=O)[C@H](Cc1ccc(O)cc1)NC(=O)[C@H](CO)NC(=O)[C@H](CO)NC(=O)[C@@H](NC(=O)[C@H](CC(=O)O)NC(=O)[C@H](CO)NC(=O)[C@@H](NC(=O)[C@H](Cc1ccccc1)NC(=O)[C@@H](NC(=O)CNC(=O)[C@H](CCC(=O)O)NC(=O)C(C)(C)NC(=O)[C@@H](N)Cc1c[nH]cn1)[C@@H](C)O)[C@@H](C)O)C(C)C)C(=O)N[C@@H](C)C(=O)N[C@@H](Cc1c[nH]c2ccccc12)C(=O)N[C@@H](CC(C)C)C(=O)N[C@H](C(=O)N[C@@H](CCCNC(=N)N)C(=O)NCC(=O)N[C@@H](CCCNC(=N)N)C(=O)NCC(=O)NCC(=O)NCC(=O)NCC(=O)N[C@@H](CO)C(=O)N[C@@H](CCCCNC(=O)COCCOCCNC(=O)COCCOCCNC(=O)CC[C@H](NC(=O)C1CCC(CNC(=O)CCCCCCCCCCCCCCCCCCC(=O)O)CC1)C(=O)O)C(=O)O)C(C)C (some centres unmarked) [Example 4] (H-H[Aib]EGTFTSDVSSYLEEK([AEEA-AEEA-γGlu-X1])AAREFIAWLVRGRGGGGSK([AEEA-AEEA-γGlu-X1])-OH; N-terminus and C-terminus assumed),5.71,,,
CC[C@H](C)[C@H](NC(=O)[C@H](Cc1ccccc1)NC(=O)[C@H](CCC(=O)O)NC(=O)[C@H](CCCNC(=N)N)NC(=O)[C@H](C)NC(=O)[C@H](C)NC(=O)[C@H](CCC(N)=O)NC(=O)[C@H](CCC(=O)O)NC(=O)[C@H](CCC(=O)O)NC(=O)[C@H](CC(C)C)NC(=O)[C@H](Cc1ccc(O)cc1)NC(=O)[C@H](CO)NC(=O)[C@H](CO)NC(=O)[C@@H](NC(=O)[C@H](CC(=O)O)NC(=O)[C@H](CO)NC(=O)[C@@H](NC(=O)[C@H](Cc1ccccc1)NC(=O)[C@@H](NC(=O)CNC(=O)[C@H](CCC(=O)O)NC(=O)C(C)(C)NC(=O)[C@@H](N)Cc1c[nH]cn1)[C@@H](C)O)[C@@H](C)O)C(C)C)C(=O)N[C@@H](C)C(=O)N[C@@H](Cc1c[nH]c2ccccc12)C(=O)N[C@@H](CC(C)C)C(=O)N[C@H](C(=O)N[C@@H](CCCNC(=N)N)C(=O)NCC(=O)N[C@@H](CCCCNC(=O)COCCOCCNC(=O)COCCOCCNC(=O)CC[C@H](NC(=O)C1CCC(CNC(=O)CCCCCCCCCCCCCCCCCCC(=O)O)CC1)C(=O)O)C(=O)NCC(=O)NCC(=O)NCC(=O)NCC(=O)N[C@@H](CO)C(=O)N[C@@H](CCCCNC(=O)COCCOCCNC(=O)COCCOCCNC(=O)CC[C@H](NC(=O)C1CCC(CNC(=O)CCCCCCCCCCCCCCCCCCC(=O)O)CC1)C(=O)O)C(=O)O)C(C)C (some centres unmarked) [Example 5] (H-H[Aib]EGTFTSDVSSYLEEQAAREFIAWLVRGK([AEEA-AEEA-γGlu-X1])GGGGSK([AEEA-AEEA-γGlu-X1])-OH; N-terminus and C-terminus assumed),5.46,,,
CC[C@H](C)[C@H](NC(=O)[C@H](Cc1ccccc1)NC(=O)[C@H](CCC(=O)O)NC(=O)[C@H](CCCNC(=N)N)NC(=O)[C@H](C)NC(=O)[C@H](C)NC(=O)[C@H](CCC(N)=O)NC(=O)[C@H](CCC(=O)O)NC(=O)[C@H](CCC(=O)O)NC(=O)[C@H](CC(C)C)NC(=O)[C@H](Cc1ccc(O)cc1)NC(=O)[C@H](CO)NC(=O)[C@H](CO)NC(=O)[C@@H](NC(=O)[C@H](CC(=O)O)NC(=O)[C@H](CO)NC(=O)[C@@H](NC(=O)[C@H](Cc1ccccc1)NC(=O)[C@@H](NC(=O)CNC(=O)[C@H](CCC(=O)O)NC(=O)C(C)(C)NC(=O)[C@@H](N)Cc1c[nH]cn1)[C@@H](C)O)[C@@H](C)O)C(C)C)C(=O)N[C@@H](C)C(=O)N[C@@H](Cc1c[nH]c2ccccc12)C(=O)N[C@@H](CC(C)C)C(=O)N[C@H](C(=O)N[C@@H](CCCNC(=N)N)C(=O)NCC(=O)N[C@@H](CCCNC(=N)N)C(=O)NCC(=O)N[C@@H](CCCCNC(=O)[C@@H](N)CCCCNC(=O)[C@@H](N)CCCCNC(=O)CC[C@H](NC(=O)[C@H]1CC[C@H](CNC(=O)CCCCCCCCCCCCCCCCCCC(=O)O)CC1)C(=O)O)C(=O)NCC(=O)NCC(=O)N[C@@H](CO)C(=O)N[C@@H](CCCCNC(=O)[C@@H](N)CCCCNC(=O)[C@@H](N)CCCCNC(=O)CC[C@H](NC(=O)[C@H]1CC[C@H](CNC(=O)CCCCCCCCCCCCCCCCCCC(=O)O)CC1)C(=O)O)C(=O)O)C(C)C [Example 7] (H-H[Aib]EGTFTSDVSSYLEEQAAREFIAWLVRGRGK([εLys-εLys-γGlu-Trx-C20 diacid])GGSK([εLys-εLys-γGlu-Trx-C20 diacid])-OH),4.42,,,
